Measured values reported in the NIST ThermoML archive (doi:10.1021/je900278v).
± gives the expanded uncertainty stated by the source.

Columns and labels:
[1] = xn = mol fraction of the nth substance listed; conditions: 101 kPa, Liquid; for viscosity: 293.15 K, Capillary tube (Ostwald / Ubbelohde) method; for mass density: 298.15 K
[2] = 101 kPa, Liquid; for viscosity: 293.15 K, Capillary tube (Ostwald / Ubbelohde) method; for mass density: 298.15 K

Molecule `CCCCCCO` [hexan-1-ol] + ClC(Cl)=C(Cl)Cl has a viscosity ([1]; x2 = 0) of 5.291 ± 0.03 mPa·s and a mass density ([1]; x2 = 0) of 818.856 ± 0.42 kg/m3.

`CCCCCCO` [hexan-1-ol] gave a viscosity [2] of 5.291 ± 0.03 mPa·s and a mass density [2] of 818.856 ± 0.42 kg/m3.

Work on `ClC(Cl)=C(Cl)Cl` [tetrachloroethene] yielded a viscosity [2] of 0.89 ± 0.007 mPa·s and a mass density [2] of 1622.74 ± 1.2 kg/m3.

For `BrCCBr` [1,2-dibromoethane], the viscosity [2] was 1.733 ± 0.011 mPa·s and the mass density [2] was 2179.59 ± 2.2 kg/m3.

For `CCCCCCO` [hexan-1-ol] + BrCCBr, the viscosity ([1]; x2 = 0) was 5.291 ± 0.03 mPa·s and the mass density ([1]; x2 = 0) was 818.856 ± 0.42 kg/m3.

Work on `BrCCBr` [1,2-dibromoethane] + CCCCCCO yielded a viscosity ([1]; x1 = 0.0402) of 4.925 ± 0.033 mPa·s, a viscosity ([1]; x1 = 0.0682) of 4.703 ± 0.031 mPa·s and a viscosity ([1]; x1 = 0.1276) of 4.275 ± 0.028 mPa·s. The viscosity ([1]; x1 = 0.2056) was 3.781 ± 0.025 mPa·s, the viscosity ([1]; x1 = 0.2686) was 3.412 ± 0.022 mPa·s and the viscosity ([1]; x1 = 0.3892) was 2.862 ± 0.019 mPa·s. For the same molecule, the viscosity ([1]; x1 = 0.4277) was 2.711 ± 0.018 mPa·s, the viscosity ([1]; x1 = 0.5444) was 2.325 ± 0.015 mPa·s and the viscosity ([1]; x1 = 0.6405) was 2.07 ± 0.014 mPa·s. For the same molecule, the viscosity ([1]; x1 = 0.7326) was 1.877 ± 0.012 mPa·s, the viscosity ([1]; x1 = 0.8519) was 1.726 ± 0.011 mPa·s and the viscosity ([1]; x1 = 0.9273) was 1.69 ± 0.011 mPa·s. The viscosity ([1]; x1 = 0.9587) was 1.692 ± 0.011 mPa·s, the viscosity ([1]; x1 = 0.9782) was 1.71 ± 0.011 mPa·s and the viscosity ([1]; x1 = 1) was 1.733 ± 0.011 mPa·s. It also gave a mass density ([1]; x1 = 0.0402) of 856.608 ± 0.41 kg/m3, a mass density ([1]; x1 = 0.0682) of 883.413 ± 0.38 kg/m3 and a mass density ([1]; x1 = 0.1276) of 941.916 ± 0.31 kg/m3. It also gave a mass density ([1]; x1 = 0.2056) of 1022.36 ± 0.28 kg/m3, a mass density ([1]; x1 = 0.2686) of 1090.47 ± 0.37 kg/m3 and a mass density ([1]; x1 = 0.3892) of 1228.97 ± 0.57 kg/m3. It also gave a mass density ([1]; x1 = 0.4277) of 1276.43 ± 0.66 kg/m3, a mass density ([1]; x1 = 0.5444) of 1427.13 ± 0.9 kg/m3 and a mass density ([1]; x1 = 0.6405) of 1562 ± 1.1 kg/m3. For the same molecule, the mass density ([1]; x1 = 0.7326) was 1701.64 ± 1.4 kg/m3, the mass density ([1]; x1 = 0.8519) was 1899.69 ± 1.7 kg/m3 and the mass density ([1]; x1 = 0.9273) was 2036.52 ± 2 kg/m3. For the same molecule, the mass density ([1]; x1 = 0.9587) was 2096.51 ± 2.1 kg/m3, the mass density ([1]; x1 = 0.9782) was 2135.29 ± 2.2 kg/m3 and the mass density ([1]; x1 = 1) was 2179.59 ± 2.2 kg/m3.

Molecule `ClC(Cl)=C(Cl)Cl` [tetrachloroethene] + CCCCCCO has a viscosity ([1]; x1 = 0.0688) of 4.756 ± 0.031 mPa·s, a viscosity ([1]; x1 = 0.123) of 4.351 ± 0.029 mPa·s and a viscosity ([1]; x1 = 0.2457) of 3.493 ± 0.024 mPa·s. For the same molecule, the viscosity ([1]; x1 = 0.3618) was 2.772 ± 0.02 mPa·s, the viscosity ([1]; x1 = 0.4502) was 2.308 ± 0.017 mPa·s and the viscosity ([1]; x1 = 0.5583) was 1.853 ± 0.014 mPa·s. The viscosity ([1]; x1 = 0.6518) was 1.534 ± 0.012 mPa·s, the viscosity ([1]; x1 = 0.7068) was 1.382 ± 0.01 mPa·s and the viscosity ([1]; x1 = 0.7419) was 1.297 ± 0.01 mPa·s. For the same molecule, the viscosity ([1]; x1 = 0.7797) was 1.213 ± 0.009 mPa·s, the viscosity ([1]; x1 = 0.8315) was 1.116 ± 0.009 mPa·s and the viscosity ([1]; x1 = 0.8718) was 1.051 ± 0.008 mPa·s. It also gave a viscosity ([1]; x1 = 0.9179) of 0.982 ± 0.008 mPa·s, a viscosity ([1]; x1 = 0.9504) of 0.942 ± 0.007 mPa·s and a viscosity ([1]; x1 = 1) of 0.89 ± 0.007 mPa·s. The mass density ([1]; x1 = 0.0688) was 864.637 ± 0.38 kg/m3, the mass density ([1]; x1 = 0.123) was 901.521 ± 0.33 kg/m3 and the mass density ([1]; x1 = 0.2457) was 987.759 ± 0.22 kg/m3. For the same molecule, the mass density ([1]; x1 = 0.3618) was 1072.99 ± 0.31 kg/m3, the mass density ([1]; x1 = 0.4502) was 1140.46 ± 0.41 kg/m3 and the mass density ([1]; x1 = 0.5583) was 1226.3 ± 0.55 kg/m3. It also gave a mass density ([1]; x1 = 0.6518) of 1303.62 ± 0.68 kg/m3, a mass density ([1]; x1 = 0.7068) of 1350.53 ± 0.76 kg/m3 and a mass density ([1]; x1 = 0.7419) of 1381.18 ± 0.81 kg/m3. For the same molecule, the mass density ([1]; x1 = 0.7797) was 1414.65 ± 0.87 kg/m3, the mass density ([1]; x1 = 0.8315) was 1461.44 ± 0.95 kg/m3 and the mass density ([1]; x1 = 0.8718) was 1498.8 ± 1 kg/m3. It also gave a mass density ([1]; x1 = 0.9179) of 1542.25 ± 1.1 kg/m3, a mass density ([1]; x1 = 0.9504) of 1573.61 ± 1.2 kg/m3 and a mass density ([1]; x1 = 1) of 1622.74 ± 1.2 kg/m3.

Work on `ClCCCl` [1,2-dichloroethane] yielded a viscosity [2] of 0.827 ± 0.007 mPa·s and a mass density [2] of 1252.77 ± 0.6 kg/m3.

Work on `CCCCCCO` [hexan-1-ol] + ClCCCl yielded a viscosity ([1]; x2 = 0) of 5.291 ± 0.03 mPa·s and a mass density ([1]; x2 = 0) of 818.856 ± 0.42 kg/m3.

Work on `ClCCCl` [1,2-dichloroethane] + CCCCCCO yielded a viscosity ([1]; x1 = 0.037) of 5.008 ± 0.032 mPa·s, a viscosity ([1]; x1 = 0.0769) of 4.696 ± 0.03 mPa·s and a viscosity ([1]; x1 = 0.1499) of 4.191 ± 0.027 mPa·s. For the same molecule, the viscosity ([1]; x1 = 0.2147) was 3.787 ± 0.025 mPa·s, the viscosity ([1]; x1 = 0.2935) was 3.292 ± 0.023 mPa·s and the viscosity ([1]; x1 = 0.3952) was 2.726 ± 0.02 mPa·s. It also gave a viscosity ([1]; x1 = 0.4532) of 2.405 ± 0.018 mPa·s, a viscosity ([1]; x1 = 0.5596) of 1.894 ± 0.015 mPa·s and a viscosity ([1]; x1 = 0.6113) of 1.677 ± 0.013 mPa·s. For the same molecule, the viscosity ([1]; x1 = 0.6971) was 1.372 ± 0.011 mPa·s, the viscosity ([1]; x1 = 0.7791) was 1.137 ± 0.009 mPa·s and the viscosity ([1]; x1 = 0.8563) was 0.977 ± 0.008 mPa·s. It also gave a viscosity ([1]; x1 = 0.9335) of 0.873 ± 0.007 mPa·s, a viscosity ([1]; x1 = 0.979) of 0.833 ± 0.007 mPa·s and a viscosity ([1]; x1 = 1) of 0.827 ± 0.007 mPa·s. The mass density ([1]; x1 = 0.037) was 828.769 ± 0.68 kg/m3, the mass density ([1]; x1 = 0.0769) was 839.847 ± 0.69 kg/m3 and the mass density ([1]; x1 = 0.1499) was 860.583 ± 0.68 kg/m3. The mass density ([1]; x1 = 0.2147) was 879.725 ± 0.7 kg/m3, the mass density ([1]; x1 = 0.2935) was 904.954 ± 0.73 kg/m3 and the mass density ([1]; x1 = 0.3952) was 940.475 ± 0.75 kg/m3. For the same molecule, the mass density ([1]; x1 = 0.4532) was 962.107 ± 0.82 kg/m3, the mass density ([1]; x1 = 0.5596) was 1005.05 ± 0.84 kg/m3 and the mass density ([1]; x1 = 0.6113) was 1027.55 ± 0.94 kg/m3. It also gave a mass density ([1]; x1 = 0.6971) of 1067.98 ± 1 kg/m3, a mass density ([1]; x1 = 0.7791) of 1111.06 ± 1.1 kg/m3 and a mass density ([1]; x1 = 0.8563) of 1155.16 ± 1.3 kg/m3. For the same molecule, the mass density ([1]; x1 = 0.9335) was 1205.43 ± 1.4 kg/m3, the mass density ([1]; x1 = 0.979) was 1236.99 ± 1.5 kg/m3 and the mass density ([1]; x1 = 1) was 1252.77 ± 0.6 kg/m3.
